How the values were obtained:
[1] = test system: Vero-E6 cells; details: African green monkey
[2] = in vitro; details: human
[3] = in vitro; details: African green monkey

O=c1[nH]c2ccccc2n1CCCN1CCC(n2c(=O)[nH]c3cc(Cl)ccc32)CC1 [Domperidone, domperidone]
HIGHEST NONTOXIC CONCENTRATION (MTT) [1]: 12.5
CC50 at 72 h [2]: 4 µM
CC50 [3]: 25 µM

Reference: patent EP3949965A1 (Consejo Superior de Investigaciones Cientificas, priority 2020, dated 2022)
